Experimental data reported in patent publication US20110086848A1, “Agrochemical Compositions Comprising Alkyl Polypropylene Glycol Polyethylene Glycol” (Bayer CropScience AG, priority 2009, published 2011).
Where two headings read alike, the source gives them in different places.

Assay: physchem
Type: physicochemical
Experimental: In the context of the present invention, the term “water-soluble agrochemically active compound” is generally understood as meaning an insecticidally and/or acaricidally active compound (i.e. an active compound that controls insects and/or Acarina) which has (at 20° C.) a solubility of ≧10 mg/l in water. Compounds A and B meet this requirement.

SMILES	solubility (at 20° C., stated as meeting the definition of water-soluble, read-out: solubility in water) [µg/mL]	solubility (20 °C, water) [µg/mL]
C/C(=N\C#N)N(Cc1ccc(Cl)nc1)CC(F)F [Compound A]	≥ 10	–
O=C1C=C(N(Cc2ccc(Cl)nc2)CC(F)F)CO1 [Compound B]	–	≥ 10
